# Structures can show the parent of a compound that is named as a salt. Marks after values point to notes of the source that are not given here.
# Assays:
# C57BL/KsJ db/db mice = assay: Antidiabetic and serum lipid lowering activity in db/db mice; settings: oral twice daily for a fortnight, rosiglitazone 5 mg/kg, Example 22 25 mg/kg, vs control; for Reduction of glucose levels % / Reduction of triglyceride levels %: serum 7 hours after last treatment; for Change in GPT levels % / Change in HDL-cholesterol levels %: serum
# 3T3-L1 cells = assay: Determination of glucose consumption in differentiated 3T3-L1 cells; assay type: cell-based, mouse; settings: 22 hours, glucose 25 mM, insulin 0.25 nM, concentrations assayed 1, 5, 10, 25 μM
# Description: Determination of Glucose Consumption in 3T3-L1 Cells
# Glucose consumption was assessed in differentiated 3T3-L1 cells.
# Mouse fibroblasts (3T3-L1) were seeded at a density of 5×10^3/cm^2 and cultured on 12-well plates in 1 ml of DMEM containing glucose 25 mM and added with 10% CS, glutamine 4 mM, pyruvate 1 mM, penicillin 50 U/ml, and streptomycin 50 μg/ml, in an atmosphere humidified with 5% CO2 at 37° C.
# Two to three days after confluence, differentiation was induced with the addition of 1.5 ml of DMEM containing 3-isobutyl-1-methylxanthine (IBMX) 0.5 mM, dexamethazone 1 μM and porcine insulin 10 μg/ml in glucose 25 mM and 10% FBS.
# After 2 days, the cells were exposed to the same medium without IBMX and dexamethazone for another 2 days. […]
# The cells were used 10-12 days after induction of differentiation, as monitored by evaluating triglyceride accumulation. […]
# The analysis of the glucose in the medium was done with the aid of a Cobas Mira S autoanalyzer (Roche), using the HK 125 Glucose Kit (ABX Diagnostics). The glucose concumprion stimulated by the products was evaluated as % increase compared to the control compound. […]
smiles,measurement,setting,value
CCOC(=O)[C@H](Cc1ccc(OC(=O)NCc2ccc(OC)cc2)cc1)NC(=O)c1ccccc1,melting point,,149 to 151 °C
COC(=O)C(Cc1ccc(OC(=O)Nc2ccc(Cl)cc2Cl)cc1)C(=O)OC,melting point,,84 °C
COC(=O)C(Cc1ccc(OC(=O)Nc2ccc(Cl)cc2)cc1)C(=O)OC,melting point,,125 to 127 °C
COC(=O)C(Cc1ccc(OC(=O)Nc2ccc([N+](=O)[O-])cc2)cc1)C(=O)OC,melting point,,128 to 130 °C
COC(=O)C(Cc1cccc(OC(=O)NCc2ccc(OC)cc2)c1)C(=O)OC,melting point,,62 to 64 °C
CCCCc1ccc(NC(=O)Oc2ccc(CC(C(=O)OC)C(=O)OC)cc2)cc1,melting point,,90 to 92 °C
COC(=O)C(Cc1cccc(OC(=O)Nc2ccc(Cl)cc2)c1)C(=O)OC,melting point,,79 to 80 °C
COC(=O)C(Cc1ccc(OC(=O)NCc2ccc(OC)cc2)cc1)C(=O)OC (as salt: malonate),melting point,,78.6 °C
"COC(=O)C(=Cc1ccc(OCCn2ccc3ccccc32)cc1)C(=O)OC [Example 3, dimethyl 4-[2-(1-indolyl]ethoxy]benzylidenemalonate]",melting point,,68 to 70 °C
"O=C(O)C(Cc1ccc(OCCn2ccc3ccccc32)cc1)C(=O)O [Example 5, 4-[2-(1-indolyl)ethoxy]benzylmalonic acid]",melting point,,112 to 114 °C
"COC(=O)CCc1ccc(OCCn2ccc3ccccc32)cc1 [Example 8, methyl 3-[4-[2-(1-indolyl)ethoxy]phenyl]-propanoate]",melting point,,85 °C
"COC(=O)Cc1ccc(OCCn2ccc3ccccc32)cc1 [Example 9, methyl 2-[4-[2-(1-indolyl)ethoxy]phenyl]acetate]",melting point,,50 to 52 °C
"COC(=O)C(O)Cc1ccc(OCCn2ccc3ccccc32)cc1 (centres unmarked) [Example 12, methyl 2-hydroxy-3-[4-[2-(1-indolyl)ethoxy]-phenyl]propanoate]",melting point,,70 to 72 °C
"O=C1NC(=O)C(=Cc2ccc(OCCc3ccc(Cl)cc3)cc2)S1 [Example 20, 5-[4-[2-(4-chlorophenyl)ethoxy]phenylmethylene]thiazolidine-2,4-dione]",melting point,,202 to 203 °C
"O=C1NC(=O)C(Cc2ccc(OCCc3ccc(Cl)cc3)cc2)S1 (centres unmarked) [Example 21, 5-[4-[2-(4-chlorophenyl)ethoxy]phenylmethyl]-thiazolidine-2,4-dione]",melting point,,147 to 148 °C
"COC(=O)C(Cc1cccc(OCCc2ccc(Cl)cc2)c1)C(=O)OC [Example 22, dimethyl 3-[2-(4-chlorophenyl)ethoxy]-benzylmalonate]",Weight gain %,C57BL/KsJ db/db mice,+16 ▴ %
same,Reduction of glucose levels %,C57BL/KsJ db/db mice,−32 Δ %
same,Reduction of triglyceride levels %,C57BL/KsJ db/db mice,−47 ▴ %
same,Change in GPT levels %,C57BL/KsJ db/db mice,+38 ▴ %
same,Change in HDL-cholesterol levels %,C57BL/KsJ db/db mice,+37 ▴ %
same,lowest concentration of those assayed to induce a 40% increase in glucose consumption,3T3-L1 cells,1 µM
"COC(=O)C(Cc1ccc(OCCc2ccc3ccccc3c2)cc1)C(=O)OC [Example 29, dimethyl 4-[2-(2-naphthyl)ethoxy]benzyl-malonate]",melting point,,68.5 °C
"O=C1NC(=O)C(=Cc2cccc(OCCc3ccc(Cl)cc3)c2)S1 [Example 46, 5-[3-[2-(4-chlorophenyl)ethoxy]phenylmethylene]thiazolidine-2,4-dione]",melting point,,186 to 187 °C
"O=C1NC(=O)C(Cc2cccc(OCCc3ccc(Cl)cc3)c2)S1 (centres unmarked) [Example 47, 5-[3-[2-(4-chlorophenyl)ethoxy]phenylmethyl]thiazolidine-2,4-dione]",melting point,,90 to 91 °C
"CN(CCOc1ccc(CC2SC(=O)NC2=O)cc1)c1ccccn1 (centres unmarked) [Rosiglitazone, rosiglitazone, reference compound]",Reduction of glucose levels %,C57BL/KsJ db/db mice,−36 Δ %
same,Reduction of triglyceride levels %,C57BL/KsJ db/db mice,−41 ▴ %
same,Change in GPT levels %,C57BL/KsJ db/db mice,+117 ▴ %
same,Change in HDL-cholesterol levels %,C57BL/KsJ db/db mice,−7%
same,lowest concentration of those assayed to induce a 40% increase in glucose consumption,3T3-L1 cells,5 µM

# From patent US20050032787A1, “Pheny (alkyl)carboxylic acid derivatives and dionic phenylalkylheterocyclic derivatives and their use as medicines with serum glucose and/or serum lipid lowering activity” (priority 2002, published 2005)
